Measurements taken from publication PMC7587962, “Evaluation of Cytotoxicity and α-Glucosidase Inhibitory Activity of Amide and Polyamino-Derivatives of Lupane Triterpenoids” (Molecules, 2020).
Read-outs that look alike come from different tables or passages of the source.

Legend:
[1] = test system: CAKI-1; assay: NCI-60 SRB screen: renal cancer CAKI-1; assay type: cell-based, human; conditions: CAKI-1
[2] = test system: Prostate cancer subpanel; assay: NCI-60 screen, subpanel Prostate cancer
[3] = test system: A498; assay: NCI-60 SRB screen: renal cancer A498; assay type: cell-based, human; conditions: A498
[4] = test system: RPMI-8226; assay: NCI-60 SRB screen: leukemia RPMI-8226; assay type: cell-based; conditions: Homo sapiens, 48 h, RPMI-8226
[5] = test system: NCI-H226; assay: NCI-60 SRB screen: non-small cell lung cancer NCI-H226; assay type: cell-based, human; conditions: NCI-H226
[6] = test system: T-47D; assay: NCI-60 SRB screen: breast cancer T-47D; assay type: cell-based, human; conditions: T-47D
[7] = test system: Colon Cancer subpanel; assay: NCI-60 screen, subpanel Colon Cancer
[8] = test system: RXF 393; assay: NCI-60 SRB screen: renal cancer RXF 393; assay type: cell-based, human; conditions: RXF 393
[9] = test system: NCI-H322M; assay: NCI-60 SRB screen: non-small cell lung cancer NCI-H322M; assay type: cell-based, human
[10] = test system: SN12C; assay: NCI-60 SRB screen: renal cancer SN12C; assay type: cell-based, human
[11] = test system: MCF7; assay: NCI-60 SRB screen: breast cancer MCF7; assay type: cell-based; conditions: Homo sapiens, 48 h, MCF7
[12] = test system: HS 578T; assay: NCI-60 SRB screen: breast cancer HS 578T; assay type: cell-based, human; conditions: HS 578T
[13] = test system: UACC-257; assay: NCI-60 SRB screen: melanoma UACC-257; assay type: cell-based, human; conditions: UACC-257
[14] = test system: SF-295; assay: NCI-60 SRB screen: CNS cancer SF-295; assay type: cell-based, human; conditions: SF-295
[15] = test system: 786-0; assay: NCI-60 SRB screen: renal cancer 786-0; assay type: cell-based, human; conditions: 786-0
[16] = test system: CCRF-CEM; assay: NCI-60 SRB screen: leukemia CCRF-CEM; assay type: cell-based; conditions: Homo sapiens, 48 h
[17] = test system: OVCAR-5; assay: NCI-60 SRB screen: ovarian cancer OVCAR-5; assay type: cell-based, human; conditions: OVCAR-5
[18] = test system: Ovarian Cancer subpanel; assay: NCI-60 screen, subpanel Ovarian Cancer
[19] = test system: MALME-3M; assay: NCI-60 SRB screen: melanoma MALME-3M; assay type: cell-based, human; conditions: MALME-3M
[20] = test system: DU-145; assay: NCI-60 SRB screen: prostate cancer DU-145; assay type: cell-based, human; conditions: DU-145
[21] = test system: HOP-62; assay: NCI-60 SRB screen: non-small cell lung cancer HOP-62; assay type: cell-based, human; conditions: HOP-62
[22] = test system: NCI/ADR-RES; assay: NCI-60 SRB screen: ovarian cancer NCI/ADR-RES; assay type: cell-based, human
[23] = test system: OVCAR-4; assay: NCI-60 SRB screen: ovarian cancer OVCAR-4; assay type: cell-based; conditions: Homo sapiens; OVCAR-4; five concentrations, 48 h, SRB; read-out: GI50
[24] = test system: BT-549; assay: NCI-60 SRB screen: breast cancer BT-549; assay type: cell-based, human; conditions: BT-549
[25] = test system: M14; assay: NCI-60 SRB screen: melanoma M14; assay type: cell-based, human; conditions: M14
[26] = test system: SR; assay: NCI-60 SRB screen: leukemia SR; assay type: cell-based; conditions: Homo sapiens, 48 h
[27] = test system: EKVX; assay: NCI-60 SRB screen: non-small cell lung cancer EKVX; assay type: cell-based, human
[28] = test system: TK-10; assay: NCI-60 SRB screen: renal cancer TK-10; assay type: cell-based, human; conditions: TK-10
[29] = test system: SK-MEL-28; assay: NCI-60 SRB screen: melanoma SK-MEL-28; assay type: cell-based, human; conditions: SK-MEL-28
[30] = test system: HOP-92; assay: NCI-60 SRB screen: non-small cell lung cancer HOP-92; assay type: cell-based, human; conditions: HOP-92
[31] = test system: SK-OV-3; assay: NCI-60 SRB screen: ovarian cancer SK-OV-3; assay type: cell-based, human; conditions: SK-OV-3
[32] = test system: MOLT-4; assay: NCI-60 SRB screen: leukemia MOLT-4; assay type: cell-based; conditions: Homo sapiens, 48 h, MOLT-4
[33] = test system: SNB-75; assay: NCI-60 SRB screen: CNS cancer SNB-75; assay type: cell-based, human; conditions: SNB-75
[34] = test system: OVCAR-8; assay: NCI-60 SRB screen: ovarian cancer OVCAR-8; assay type: cell-based, human; conditions: OVCAR-8
[35] = test system: U251; assay: NCI-60 SRB screen: CNS cancer U251; assay type: cell-based; conditions: Homo sapiens, U251
[36] = test system: RXF 393; parameters: method as in PMID 25405285; conditions: standard drugs used by NCI as control; cited from earlier work
[37] = test system: OVCAR-3; parameters: method as in PMID 25405285; conditions: standard drugs used by NCI as control; cited from earlier work
[38] = test system: HCC-2998; parameters: method as in PMID 25405285; conditions: standard drugs used by NCI as control; cited from earlier work
[39] = Homo sapiens, five concentrations, 48 h, SRB, read-out: GI50
[40] = single dose 10 µM, read-out: Percentage Cell Growth
[41] = five concentrations, SRB, read-out: GI50

In the case of `C=C(C)[C@@H]1CC[C@]2(C(=O)OC)CC[C@]3(C)[C@H](CC[C@@H]4[C@@]5(C)CCC(=NOCCC(=NOCCC#N)NCCC#N)C(C)(C)[C@@H]5CC[C@]43C)[C@@H]12` [Compound 21], the “Percentage Cell Growth” value ([1]; single dose 10 µM) is reported as 18.52%, the GI50 [1, 39] is reported as 10.2 µM and the “MID b, average sensitivity of all cell line of particular subpanel” value (from here on “MID b, average sensitivity”) [2] is reported as 7.83 µM. The “Selectivity, ratio MID a: MID b” value [2] was 1.31, the “Percentage Cell Growth” value ([3]; single dose 10 µM) was −0.38% and the GI50 [3, 39] was 21.7 µM. The activity at 10 µM [4, 40] was 3.28%, the GI50 [4, 41] was 4.91 µM and the GI50 [5, 39] was 5.43 µM. The “Percentage Cell Growth” value ([5]; single dose 10 µM) was 2.42%, the GI50 ([6]; Homo sapiens, T47D, five concentrations, 48 h, SRB, read-out: GI50) was 3.47 µM and the “Percentage Cell Growth” value ([6]; single dose 10 µM) was 15.11%. For the same compound, the “MID b, average sensitivity” value [7] was 7.42 µM, the “Selectivity, ratio MID a: MID b” value [7] was 1.38 and the GI50 [8, 39] was 5.64 µM. For the same compound, the “Percentage Cell Growth” value ([8]; single dose 10 µM) was −43.14%, the GI50 [9, 39] was over 50 µM and the “Percentage Cell Growth” value ([9]; single dose 10 µM) was 46.12%. The GI50 [10, 39] was 7.28 µM, the “Percentage Cell Growth” value ([10]; single dose 10 µM) was −71.91% and the activity at 10 µM [11, 40] was 12.4%. For the same compound, the GI50 [11, 41] was 3.67 µM, the “Percentage Cell Growth” value ([12]; single dose 10 µM) was 24.26% and the GI50 [12, 39] was 30.2 µM. The GI50 [13, 39] was 5.35 µM, the “Percentage Cell Growth” value ([13]; single dose 10 µM) was 8.82% and the GI50 [14, 39] was 21.4 µM. The “Percentage Cell Growth” value ([14]; single dose 10 µM) was 36.56%, the “Percentage Cell Growth” value ([15]; single dose 10 µM) was −11.47% and the GI50 [15, 39] was 6.42 µM. It also gave an activity at 10 µM [16, 40] of 7.42%, a GI50 [16, 41] of 11.7 µM and a GI50 [17, 39] of 16.7 µM. The “Percentage Cell Growth” value ([17]; single dose 10 µM) was 50.59%, the “MID b, average sensitivity” value [18] was 11.86 µM and the “Selectivity, ratio MID a: MID b” value [18] was 0.86. The GI50 [19, 39] was 11.8 µM, the “Percentage Cell Growth” value ([19]; single dose 10 µM) was 25.27% and the “Percentage Cell Growth” value ([20]; single dose 10 µM) was 27.53%. The GI50 [20, 39] was 13.4 µM, the “Percentage Cell Growth” value ([21]; single dose 10 µM) was 32.54% and the GI50 [21, 39] was 12.5 µM. The GI50 [22, 39] was 13.5 µM, the “Percentage Cell Growth” value ([22]; single dose 10 µM) was 17.06% and the GI50 [23] was 12.3 µM. For the same compound, the “Percentage Cell Growth” value ([24]; single dose 10 µM) was 4.40%, the GI50 [24, 39] was 11.3 µM and the GI50 [25, 39] was 11.9 µM. For the same compound, the “Percentage Cell Growth” value ([25]; single dose 10 µM) was 26.57%, the activity at 10 µM [26, 40] was 1.86% and the GI50 [26, 41] was 2.87 µM. The GI50 [27, 39] was 4.77 µM, the “Percentage Cell Growth” value ([27]; single dose 10 µM) was 53.13% and the GI50 [28, 39] was 13.8 µM. The “Percentage Cell Growth” value ([28]; single dose 10 µM) was 37.88%, the GI50 [29, 39] was 17.1 µM and the “Percentage Cell Growth” value ([29]; single dose 10 µM) was 29.25%. The “Percentage Cell Growth” value ([30]; single dose 10 µM) was −14.95%, the GI50 [30, 39] was 6.9 µM and the GI50 [31, 39] was 10.8 µM. For the same compound, the “Percentage Cell Growth” value ([31]; single dose 10 µM) was 34.60%, the activity at 10 µM [32, 40] was -26.8% and the GI50 [32, 41] was 2.52 µM. The GI50 [33, 39] was 31.2 µM, the “Percentage Cell Growth” value ([33]; single dose 10 µM) was 18.44% and the GI50 [34, 39] was 9.66 µM. The “Percentage Cell Growth” value ([34]; single dose 10 µM) was 13.17%, the activity at 10 µM ([35]; U-251, 48 h, single dose 10 µM, read-out: Percentage Cell Growth) was -39.7% and the GI50 ([35]; U-251, five concentrations, 48 h, SRB, read-out: GI50) was 4.3 µM.

In the case of `COc1cccc2c1C(=O)c1c(O)c3c(c(O)c1C2=O)C[C@@](O)(C(=O)CO)C[C@@H]3O[C@H]1C[C@H](N)[C@H](O)[C@H](C)O1` [DRB, doxorubicin], the GI50 [36] is given as 0.1 µM, the GI50 [37] is given as 0.39 µM and the GI50 [38] is given as 0.26 µM.
